Assay results taken from ChEMBL document CHEMBL4028802, “DILIrank: the largest reference drug list ranked by the risk for developing drug-induced liver injury in humans” (Drug Discov Today, 2016).
Starred links: 1 amine or outer side, 2 acyl side, 3 side chain; linkers in the order of their positions; H or OH if unused. Positions of bridges follow the written chain, without caps; N, C: chain ends. Non-standard residues stand in square brackets, D forms with d. Residues, ends and D or L forms follow the SMILES beside them. *: point of attachment. pTerphenylCO(4''-OnC5H11) = CCCCCOc1ccc(-c2ccc(-c3ccc(C(=O)*)cc3)cc2)cc1; Orn(4R-OH,5R-OH) = O=C([C@H](C[C@@H](O)[C@@H](O)N[*:3])N[*:1])[*:2]; hTyr(3S-OH,4S-OH) = N[C@H](C(=O)O)[C@H](O)[C@@H](O)c1ccc(O)cc1; Pro(3S-OH,4S-Me) = C[C@H]1CN[C@H](C(=O)O)[C@H]1O; Hyp = O=C(O)[C@@H]1C[C@@H](O)CN1

Key:
[1] = species: Homo sapiens; test: Liver toxicity in human assessed as induction of drug-induced liver injury by measuring severity class index
[2] = species: Homo sapiens; test: Liver toxicity in human assessed as induction of drug-induced liver injury by measuring verified drug-induced liver injury concern status
Wherever DILI severity class is given: key of the grades not given here.

Structure (SMILES) | DILI_severity_class [1] | DILI_Concern [2]
Nc1nc2c(ncn2COCCO)c(=O)[nH]1 [ACYCLOVIR] | 5 | Less-Dili-Concern
Nc1ncnc2c1ncn2CCOCP(=O)(O)O [ADEFOVIR] | 2 | Less-Dili-Concern
Nc1ncnc2c1ncn2[C@@H]1O[C@H](CO)[C@@H](O)[C@H]1O [ADENOSINE] | 0 | No-Dili-Concern
CC(N)C(=O)OC(C)(C)Cc1ccc(Cl)cc1 (configuration not stated) [ALAPROCLATE] | 8 | Most-Dili-Concern
CS(=O)(=O)O.C[C@H](N)C(=O)N[C@@H](C)C(=O)N[C@H]1[C@@H]2CN(c3nc4c(cc3F)c(=O)c(C(=O)O)cn4-c3ccc(F)cc3F)C[C@@H]21 [ALATROFLOXACIN MESYLATE] | 8 | Most-Dili-Concern
CCCSc1ccc2nc(NC(=O)OC)[nH]c2c1 [ALBENDAZOLE] | 7 | Most-Dili-Concern
CC(C)(C)NCC(O)c1ccc(O)c(CO)c1 (configuration not stated) [ALBUTEROL] | 0 | No-Dili-Concern
C=CCOc1ccc(CC(=O)O)cc1Cl [ALCLOFENAC] | 8 | Most-Dili-Concern
NCCCC(O)(P(=O)(O)O)P(=O)(O)O [ALENDRONIC ACID] | 0 | Less-Dili-Concern
COc1cc2nc(N(C)CCCNC(=O)C3CCCO3)nc(N)c2cc1OC (configuration not stated) [ALFUZOSIN] | 5 | Less-Dili-Concern
Oc1ncnc2[nH]ncc12 [ALLOPURINOL] | 8 | Most-Dili-Concern
CN(C)CCc1c[nH]c2ccc(CS(=O)(=O)N3CCCC3)cc12 [ALMOTRIPTAN] | 0 | No-Dili-Concern
Cc1[nH]cnc1CN1CCc2c(c3ccccc3n2C)C1=O [ALOSETRON] | 4 | Less-Dili-Concern
CCCN(CCC)C(=O)Cc1c(-c2ccc(Cl)cc2)nc2ccc(Cl)cn12 [ALPIDEM] | 8 | Most-Dili-Concern
Cc1nnc2n1-c1ccc(Cl)cc1C(c1ccccc1)=NC2 [ALPRAZOLAM] | 7 | Less-Dili-Concern
CN(C)c1nc(N(C)C)nc(N(C)C)n1 [ALTRETAMINE] | 2 | Ambiguous-Dili-Concern
C[C@H]1CN(C[C@H](Cc2ccccc2)C(=O)NCC(=O)O)CC[C@@]1(C)c1cccc(O)c1 [ALVIMOPAN] | 0 | No-Dili-Concern
NC12CC3CC(CC(C3)C1)C2 [AMANTADINE] | 3 | Ambiguous-Dili-Concern
CC[N+](CC)(CCNC(=O)C(=O)NCC[N+](CC)(CC)Cc1ccccc1Cl)Cc1ccccc1Cl [AMBENONIUM] | 0 | No-Dili-Concern
COC(c1ccccc1)(c1ccccc1)[C@H](Oc1nc(C)cc(C)n1)C(=O)O [AMBRISENTAN] | 7 | Ambiguous-Dili-Concern
NCCCNCCSP(=O)(O)O [AMIFOSTINE] | 0 | No-Dili-Concern
NCC[C@H](O)C(=O)N[C@@H]1C[C@H](N)[C@@H](O[C@H]2O[C@H](CN)[C@@H](O)[C@H](O)[C@H]2O)[C@H](O)[C@H]1O[C@H]1O[C@H](CO)[C@@H](O)[C@H](N)[C@H]1O [AMIKACIN] | 0 | No-Dili-Concern
N=C(N)NC(=O)c1nc(Cl)c(N)nc1N [AMILORIDE] | 3 | Less-Dili-Concern
O=C(O)CCCCCCNC1c2ccccc2CCc2ccccc21 [AMINEPTINE] | 8 | Most-Dili-Concern
NCCCCCC(=O)O [AMINOCAPROIC ACID] | 0 | No-Dili-Concern
Nc1ccc(C(=O)NCC(=O)O)cc1 [AMINOHIPPURIC ACID] | 0 | No-Dili-Concern

Structure (SMILES) | DILI_severity_class [1] | DILI_Concern [2]
Cn1c(=O)c2[nH]cnc2n(C)c1=O.Cn1c(=O)c2[nH]cnc2n(C)c1=O.NCCN [AMINOPHYLLINE] | 0 | No-Dili-Concern
Nc1ccc(C(=O)O)c(O)c1 [AMINOSALICYLIC ACID] | 5 | Most-Dili-Concern
CCCCc1oc2ccccc2c1C(=O)c1cc(I)c(OCCN(CC)CC)c(I)c1 [AMIODARONE] | 8 | Most-Dili-Concern
CN(C)CCC=C1c2ccccc2CCc2ccccc21 [AMITRIPTYLINE] | 5 | Less-Dili-Concern
CCOC(=O)C1=C(COCCN)NC(C)=C(C(=O)OC)C1c1ccccc1Cl (configuration not stated) [AMLODIPINE] | 5 | Less-Dili-Concern
Cl.N [AMMONIUM CHLORIDE] | 0 | No-Dili-Concern
Clc1ccc2c(c1)C(N1CCNCC1)=Nc1ccccc1O2 [AMOXAPINE] | 3 | Ambiguous-Dili-Concern
CC1(C)S[C@@H]2[C@H](NC(=O)[C@H](N)c3ccc(O)cc3)C(=O)N2[C@H]1C(=O)O [AMOXICILLIN] | 5 | Less-Dili-Concern
CC(N)Cc1ccccc1 (configuration not stated) [AMPHETAMINE] | 0 | Less-Dili-Concern
C[C@@H]1[C@H](O)[C@@H](C)/C=C/C=C/C=C/C=C/C=C/C=C/C=C/[C@H](O[C@@H]2O[C@H](C)[C@@H](O)[C@H](N)[C@@H]2O)C[C@@H]2O[C@](O)(C[C@@H](O)C[C@@H](O)[C@H](O)CC[C@@H](O)C[C@@H](O)CC(=O)O[C@H]1C)C[C@H](O)[C@H]2C(=O)O [AMPHOTERICIN B] | 3 | Less-Dili-Concern
CC1(C)S[C@@H]2[C@H](NC(=O)[C@H](N)c3ccccc3)C(=O)N2[C@H]1C(=O)O [AMPICILLIN] | 3 | Less-Dili-Concern
O=C1CN2Cc3c(ccc(Cl)c3Cl)N=C2N1 [ANAGRELIDE] | 3 | Ambiguous-Dili-Concern
CC(C)(C#N)c1cc(Cn2cncn2)cc(C(C)(C)C#N)c1 [ANASTROZOLE] | 3 | Less-Dili-Concern
CCCCCOc1ccc(-c2ccc(-c3ccc(C(=O)N[C@H]4C[C@@H](O)[C@@H](O)NC(=O)[C@@H]5[C@@H](O)[C@@H](C)CN5C(=O)[C@H]([C@@H](C)O)NC(=O)[C@H]([C@H](O)[C@@H](O)c5ccc(O)cc5)NC(=O)[C@@H]5C[C@@H](O)CN5C(=O)[C@H]([C@@H](C)O)NC4=O)cc3)cc2)cc1 [ANIDULAFUNGIN] ({pTerphenylCO(4''-OnC5H11)}-[Orn(4R-OH,5R-OH)]T[Hyp][hTyr(3S-OH,4S-OH)]T[Pro(3S-OH,4S-Me)]; lactam 1-C) | 7 | Ambiguous-Dili-Concern
CCCCN1C(=O)[C@@H]([C@H](O)C2CCCCC2)NC(=O)C12CCN(Cc1ccc(Oc3ccc(C(=O)O)cc3)cc1)CC2 [APLAVIROC] | 8 | Most-Dili-Concern
CN1CCc2cccc3c2[C@H]1Cc1ccc(O)c(O)c1-3 [APOMORPHINE] | 0 | No-Dili-Concern
C[C@@H](O[C@H]1OCCN(Cc2n[nH]c(=O)[nH]2)[C@H]1c1ccc(F)cc1)c1cc(C(F)(F)F)cc(C(F)(F)F)c1 [APREPITANT] | 3 | Ambiguous-Dili-Concern
CC1CNc2c(cccc2S(=O)(=O)N[C@@H](CCCNC(=N)N)C(=O)N2CC[C@@H](C)C[C@@H]2C(=O)O)C1 (some centres not stated) [ARGATROBAN] | 0 | No-Dili-Concern
N=C(N)NCCC[C@H](N)C(=O)O [ARGININE] | 0 | No-Dili-Concern
O=C1CCc2ccc(OCCCCN3CCN(c4cccc(Cl)c4Cl)CC3)cc2N1 [ARIPIPRAZOLE] | 5 | Ambiguous-Dili-Concern
NC(=O)C[S@@+]([O-])C(c1ccccc1)c1ccccc1 [ARMODAFINIL] | 3 | Ambiguous-Dili-Concern
O=[As][As+](=O)[O-] (configuration not stated) [ARSENIC TRIOXIDE] | 3 | Ambiguous-Dili-Concern
O=C1O[C@H]([C@@H](O)CO)C(O)=C1O [ASCORBIC ACID] | 0 | No-Dili-Concern
CC(=O)Oc1ccccc1C(=O)O [ASPIRIN] | 0 | Less-Dili-Concern
COC(=O)N[C@H](C(=O)N[C@@H](Cc1ccccc1)[C@@H](O)CN(Cc1ccc(-c2ccccn2)cc1)NC(=O)[C@@H](NC(=O)OC)C(C)(C)C)C(C)(C)C [ATAZANAVIR] | 3 | Less-Dili-Concern
